Assay results taken from the supplement of paper PMC10307832.

How the values were obtained:
Assay in all cases: relative viability (nuclei count vs DMSO), 5 days (fraction); higher = more cells survive
Linsitinib + Foretinib = compound: C[C@]1(O)C[C@@H](c2nc(-c3ccc4ccc(-c5ccccc5)nc4c3)c3c(N)nccn32)C1 [Linsitinib] + COc1cc2c(Oc3ccc(NC(=O)C4(C(=O)Nc5ccc(F)cc5)CC4)cc3F)ccnc2cc1OCCCN1CCOCC1 [Foretinib] (partner 0.25 µM)
Summary of the method: (§1)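 Dosing by pin tool came one day after lung cancer cell lines were seeded in 1536-well plates, using either one drug or a fixed anchor-drug dose plus five library-drug doses (not always all listed) in √10 steps. After 5 days, nuclei were counted on 4× images. Relative viability is treated-well nuclei count divided by vehicle-well nuclei count, and values are medians of duplicate plates.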

Linsitinib + AZD7762 = compound: C[C@]1(O)C[C@@H](c2nc(-c3ccc4ccc(-c5ccccc5)nc4c3)c3c(N)nccn32)C1 [Linsitinib] + NC(=O)Nc1cc(-c2cccc(F)c2)sc1C(=O)N[C@H]1CCCNC1 [AZD7762] (partner 0.2 µM)
Summary of the method: as §1

Ispinesib + Dasatinib = compound: Cc1ccc(C(=O)N(CCCN)[C@@H](c2nc3cc(Cl)ccc3c(=O)n2Cc2ccccc2)C(C)C)cc1 [Ispinesib] + Cc1nc(Nc2ncc(C(=O)Nc3c(C)cccc3Cl)s2)cc(N2CCN(CCO)CC2)n1 [Dasatinib] (partner 0.075 µM)
Summary of the method: as §1

Ispinesib + AZD7762 = compound: Cc1ccc(C(=O)N(CCCN)[C@@H](c2nc3cc(Cl)ccc3c(=O)n2Cc2ccccc2)C(C)C)cc1 [Ispinesib] + NC(=O)Nc1cc(-c2cccc(F)c2)sc1C(=O)N[C@H]1CCCNC1 [AZD7762] (partner 0.2 µM)
Summary of the method: as §1

BEN
relative viability (Linsitinib + Foretinib; first compound 0.01 µM): 0.635
relative viability (Linsitinib + Foretinib; first compound 0.03162 µM): 0.578
relative viability (Linsitinib + Foretinib; first compound 0.1 µM): 0.642
relative viability (Linsitinib + Foretinib; first compound 1 µM): 0.753
relative viability (Linsitinib + AZD7762; first compound 0.01 µM): 0.563
relative viability (Linsitinib + AZD7762; first compound 0.03162 µM): 0.771
relative viability (Linsitinib + AZD7762; first compound 0.1 µM): 0.617
relative viability (Linsitinib + AZD7762; first compound 0.3162 µM): 0.742
relative viability (Linsitinib + AZD7762; first compound 1 µM): 0.677
relative viability (Ispinesib + Dasatinib; first compound 0.001 µM): 0.36
relative viability (Ispinesib + Dasatinib; first compound 0.003162 µM): 0.371
relative viability (Ispinesib + Dasatinib; first compound 0.01 µM): 0.307
relative viability (Ispinesib + Dasatinib; first compound 0.03162 µM): 0.248
relative viability (Ispinesib + Dasatinib; first compound 0.1 µM): 0.141
relative viability (Ispinesib + AZD7762; first compound 0.001 µM): 0.745
relative viability (Ispinesib + AZD7762; first compound 0.003162 µM): 0.85
relative viability (Ispinesib + AZD7762; first compound 0.01 µM): 0.678
relative viability (Ispinesib + AZD7762; first compound 0.03162 µM): 0.472
relative viability (Ispinesib + AZD7762; first compound 0.1 µM): 0.347

LC-2-ad
relative viability (Linsitinib + Foretinib; first compound 0.01 µM): 0.983
relative viability (Linsitinib + Foretinib; first compound 0.03162 µM): 0.979
relative viability (Linsitinib + Foretinib; first compound 0.1 µM): 0.858
relative viability (Linsitinib + Foretinib; first compound 0.3162 µM): 0.738
relative viability (Linsitinib + Foretinib; first compound 1 µM): 0.671
relative viability (Linsitinib + AZD7762; first compound 0.01 µM): 0.862
relative viability (Linsitinib + AZD7762; first compound 0.03162 µM): 0.816
relative viability (Linsitinib + AZD7762; first compound 0.1 µM): 0.814
relative viability (Linsitinib + AZD7762; first compound 0.3162 µM): 0.805
relative viability (Linsitinib + AZD7762; first compound 1 µM): 0.54
relative viability (Ispinesib + Dasatinib; first compound 0.001 µM): 0.566
relative viability (Ispinesib + Dasatinib; first compound 0.003162 µM): 0.716
relative viability (Ispinesib + Dasatinib; first compound 0.01 µM): 0.737
relative viability (Ispinesib + Dasatinib; first compound 0.03162 µM): 0.318
relative viability (Ispinesib + Dasatinib; first compound 0.1 µM): 0.133
relative viability (Ispinesib + AZD7762; first compound 0.001 µM): 0.942
relative viability (Ispinesib + AZD7762; first compound 0.003162 µM): 0.941
relative viability (Ispinesib + AZD7762; first compound 0.01 µM): 1.02
relative viability (Ispinesib + AZD7762; first compound 0.03162 µM): 0.425
relative viability (Ispinesib + AZD7762; first compound 0.1 µM): 0.322

NCI-H1437
relative viability (Linsitinib + Foretinib; first compound 0.01 µM): 1.18
relative viability (Linsitinib + Foretinib; first compound 0.03162 µM): 1.11
relative viability (Linsitinib + Foretinib; first compound 0.1 µM): 1.25
relative viability (Linsitinib + Foretinib; first compound 0.3162 µM): 0.822
relative viability (Linsitinib + Foretinib; first compound 1 µM): 1.25
relative viability (Linsitinib + AZD7762; first compound 0.01 µM): 1.15
relative viability (Linsitinib + AZD7762; first compound 0.03162 µM): 1.16
relative viability (Linsitinib + AZD7762; first compound 0.1 µM): 1.11
relative viability (Linsitinib + AZD7762; first compound 0.3162 µM): 0.964
relative viability (Linsitinib + AZD7762; first compound 1 µM): 1.1
relative viability (Ispinesib + Dasatinib; first compound 0.001 µM): 0.45
relative viability (Ispinesib + Dasatinib; first compound 0.003162 µM): 0.512
relative viability (Ispinesib + Dasatinib; first compound 0.01 µM): 0.395
relative viability (Ispinesib + Dasatinib; first compound 0.03162 µM): 0.35
relative viability (Ispinesib + Dasatinib; first compound 0.1 µM): 0.166
relative viability (Ispinesib + AZD7762; first compound 0.001 µM): 1.16
relative viability (Ispinesib + AZD7762; first compound 0.003162 µM): 1.15
relative viability (Ispinesib + AZD7762; first compound 0.01 µM): 1.18
relative viability (Ispinesib + AZD7762; first compound 0.03162 µM): 1.13
relative viability (Ispinesib + AZD7762; first compound 0.1 µM): 0.296

NCI-H3122
relative viability (Linsitinib + Foretinib; first compound 0.01 µM): 0.913
relative viability (Linsitinib + Foretinib; first compound 0.03162 µM): 0.945
relative viability (Linsitinib + Foretinib; first compound 0.1 µM): 0.978
relative viability (Linsitinib + Foretinib; first compound 0.3162 µM): 0.874
relative viability (Linsitinib + Foretinib; first compound 1 µM): 0.907
relative viability (Linsitinib + AZD7762; first compound 0.01 µM): 0.985
relative viability (Linsitinib + AZD7762; first compound 0.03162 µM): 0.992
relative viability (Linsitinib + AZD7762; first compound 0.1 µM): 0.968
relative viability (Linsitinib + AZD7762; first compound 1 µM): 0.765
relative viability (Ispinesib + Dasatinib; first compound 0.001 µM): 0.944
relative viability (Ispinesib + Dasatinib; first compound 0.003162 µM): 0.917
relative viability (Ispinesib + Dasatinib; first compound 0.01 µM): 0.973
relative viability (Ispinesib + Dasatinib; first compound 0.03162 µM): 0.759
relative viability (Ispinesib + Dasatinib; first compound 0.1 µM): 0.127
relative viability (Ispinesib + AZD7762; first compound 0.001 µM): 0.996
relative viability (Ispinesib + AZD7762; first compound 0.003162 µM): 0.982
relative viability (Ispinesib + AZD7762; first compound 0.01 µM): 1.15
relative viability (Ispinesib + AZD7762; first compound 0.03162 µM): 0.835
relative viability (Ispinesib + AZD7762; first compound 0.1 µM): 0.141

NCI-H727
relative viability (Linsitinib + Foretinib; first compound 0.01 µM): 0.836
relative viability (Linsitinib + Foretinib; first compound 0.03162 µM): 0.866
relative viability (Linsitinib + Foretinib; first compound 0.1 µM): 0.647
relative viability (Linsitinib + Foretinib; first compound 0.3162 µM): 0.632
relative viability (Linsitinib + Foretinib; first compound 1 µM): 0.611
relative viability (Linsitinib + AZD7762; first compound 0.01 µM): 0.39
relative viability (Linsitinib + AZD7762; first compound 0.03162 µM): 0.503
relative viability (Linsitinib + AZD7762; first compound 0.1 µM): 0.346
relative viability (Linsitinib + AZD7762; first compound 0.3162 µM): 0.363
relative viability (Linsitinib + AZD7762; first compound 1 µM): 0.376
relative viability (Ispinesib + Dasatinib; first compound 0.001 µM): 0.536
relative viability (Ispinesib + Dasatinib; first compound 0.003162 µM): 0.221
relative viability (Ispinesib + Dasatinib; first compound 0.01 µM): 0.434
relative viability (Ispinesib + Dasatinib; first compound 0.03162 µM): 0.472
relative viability (Ispinesib + Dasatinib; first compound 0.1 µM): 0.388
relative viability (Ispinesib + AZD7762; first compound 0.001 µM): 0.722
relative viability (Ispinesib + AZD7762; first compound 0.003162 µM): 0.564
relative viability (Ispinesib + AZD7762; first compound 0.03162 µM): 0.548
relative viability (Ispinesib + AZD7762; first compound 0.1 µM): 0.498

NCI-H1734
relative viability (Linsitinib + Foretinib; first compound 0.01 µM): 0.827
relative viability (Linsitinib + Foretinib; first compound 0.03162 µM): 0.866
relative viability (Linsitinib + Foretinib; first compound 0.1 µM): 0.801
relative viability (Linsitinib + Foretinib; first compound 0.3162 µM): 0.795
relative viability (Linsitinib + Foretinib; first compound 1 µM): 0.604
relative viability (Linsitinib + AZD7762; first compound 0.01 µM): 0.61
relative viability (Linsitinib + AZD7762; first compound 0.03162 µM): 0.534
relative viability (Linsitinib + AZD7762; first compound 0.1 µM): 0.579
relative viability (Linsitinib + AZD7762; first compound 0.3162 µM): 0.794
relative viability (Linsitinib + AZD7762; first compound 1 µM): 0.363
relative viability (Ispinesib + Dasatinib; first compound 0.001 µM): 0.428
relative viability (Ispinesib + Dasatinib; first compound 0.003162 µM): 0.53
relative viability (Ispinesib + Dasatinib; first compound 0.01 µM): 0.53
relative viability (Ispinesib + Dasatinib; first compound 0.03162 µM): 0.337
relative viability (Ispinesib + Dasatinib; first compound 0.1 µM): 0.187
relative viability (Ispinesib + AZD7762; first compound 0.001 µM): 0.709
relative viability (Ispinesib + AZD7762; first compound 0.003162 µM): 0.627
relative viability (Ispinesib + AZD7762; first compound 0.01 µM): 0.64
relative viability (Ispinesib + AZD7762; first compound 0.03162 µM): 0.448
relative viability (Ispinesib + AZD7762; first compound 0.1 µM): 0.245

HCC-15
relative viability (Linsitinib + Foretinib; first compound 0.01 µM): 1.08
relative viability (Linsitinib + Foretinib; first compound 0.03162 µM): 1.01
relative viability (Linsitinib + Foretinib; first compound 0.1 µM): 1.04
relative viability (Linsitinib + Foretinib; first compound 1 µM): 0.809
relative viability (Linsitinib + AZD7762; first compound 0.01 µM): 1.07
relative viability (Linsitinib + AZD7762; first compound 0.03162 µM): 1.15
relative viability (Linsitinib + AZD7762; first compound 0.1 µM): 1.16
relative viability (Linsitinib + AZD7762; first compound 0.3162 µM): 0.839
relative viability (Linsitinib + AZD7762; first compound 1 µM): 1.11
relative viability (Ispinesib + Dasatinib; first compound 0.001 µM): 0.711
relative viability (Ispinesib + Dasatinib; first compound 0.003162 µM): 0.662
relative viability (Ispinesib + Dasatinib; first compound 0.01 µM): 0.604
relative viability (Ispinesib + Dasatinib; first compound 0.03162 µM): 0.371
relative viability (Ispinesib + Dasatinib; first compound 0.1 µM): 0.21
relative viability (Ispinesib + AZD7762; first compound 0.001 µM): 1.26
relative viability (Ispinesib + AZD7762; first compound 0.003162 µM): 1.33
relative viability (Ispinesib + AZD7762; first compound 0.01 µM): 1.34
relative viability (Ispinesib + AZD7762; first compound 0.03162 µM): 0.902
relative viability (Ispinesib + AZD7762; first compound 0.1 µM): 0.154

NCI-H2405
relative viability (Linsitinib + Foretinib; first compound 0.01 µM): 1.01
relative viability (Linsitinib + Foretinib; first compound 0.03162 µM): 1.04
relative viability (Linsitinib + Foretinib; first compound 0.1 µM): 1.06
relative viability (Linsitinib + Foretinib; first compound 0.3162 µM): 0.965
relative viability (Linsitinib + Foretinib; first compound 1 µM): 0.813
relative viability (Linsitinib + AZD7762; first compound 0.01 µM): 0.74
relative viability (Linsitinib + AZD7762; first compound 0.03162 µM): 0.662
relative viability (Linsitinib + AZD7762; first compound 0.1 µM): 0.711
relative viability (Linsitinib + AZD7762; first compound 0.3162 µM): 0.859
relative viability (Linsitinib + AZD7762; first compound 1 µM): 0.474
relative viability (Ispinesib + Dasatinib; first compound 0.001 µM): 0.208
relative viability (Ispinesib + Dasatinib; first compound 0.003162 µM): 0.223
relative viability (Ispinesib + Dasatinib; first compound 0.01 µM): 0.656
relative viability (Ispinesib + Dasatinib; first compound 0.03162 µM): 0.184
relative viability (Ispinesib + Dasatinib; first compound 0.1 µM): 0.247
relative viability (Ispinesib + AZD7762; first compound 0.001 µM): 0.867
relative viability (Ispinesib + AZD7762; first compound 0.003162 µM): 0.791
relative viability (Ispinesib + AZD7762; first compound 0.01 µM): 0.73
relative viability (Ispinesib + AZD7762; first compound 0.03162 µM): 0.711
relative viability (Ispinesib + AZD7762; first compound 0.1 µM): 0.363
